Laboratory results reported in patent publication US20240383904A1, “HETEROCYCLIC COMPOUNDS” (Hoffmann-La Roche Inc., priority 2021, published 2024).

Each molecule was assayed against T1, MAGL (Homo sapiens, UniProt Q99685) (assay: 2-AG assay: MAGL inhibitory activity by hydrolysis of 2-arachidonoylglycerol to arachidonic acid, followed by mass spectrometry). Settings: 15 min preincubation, 30 min reaction at RT, 8 μM 2-arachidonoylglycerol.
T1 sequence (Q99685 1-303): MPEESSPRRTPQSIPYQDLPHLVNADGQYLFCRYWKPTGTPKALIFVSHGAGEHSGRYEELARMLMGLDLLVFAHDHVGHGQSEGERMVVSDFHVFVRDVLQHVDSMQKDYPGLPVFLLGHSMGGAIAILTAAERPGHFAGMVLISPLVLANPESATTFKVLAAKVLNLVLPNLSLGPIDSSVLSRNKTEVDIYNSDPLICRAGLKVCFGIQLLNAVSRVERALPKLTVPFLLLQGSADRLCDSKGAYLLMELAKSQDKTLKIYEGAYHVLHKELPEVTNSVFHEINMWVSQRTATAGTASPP
Type: biochemical

SMILES	IC50 [nM]
O=C1COCC2(CN(C(=O)N3CC4(CCN(Cc5cccc(S(=O)(=O)C(F)(F)F)c5)C4)C3)C2)N1 [Example 260, 2-[7-[[3-(trifluoromethylsulfonyl)phenyl]methyl]-2,7-diazaspiro[3.4]octane-2-carbonyl]-8-oxa-2,5-diazaspiro[3.5]nonan-6-one]	80.7
N#Cc1ncc(CC2CC3(C2)CN(C(=O)N2CC4(COC(=O)N4)C2)C3)cc1C(F)(F)F [Example 261, 5-[[2-(6-oxo-7-oxa-2,5-diazaspiro[3.4]octane-2-carbonyl)-2-azaspiro[3.3]heptan-6-yl]methyl]-3-(trifluoromethyl)pyridine-2-carbonitrile]	0.43
O=C1CCC2(CN(C(=O)N3CC4(CC(Cc5ccc(S(=O)(=O)C(F)(F)F)cn5)C4)C3)C2)N1 [Example 262, 2-[6-[[5-(trifluoromethylsulfonyl)-2-pyridyl]methyl]-2-azaspiro[3.3]heptane-2-carbonyl]-2,5-diazaspiro[3.4]octan-6-one]	1.06
O=C1CCCC2(CN(C(=O)N3CC4(CC(Cc5ccc(S(=O)(=O)C(F)(F)F)cn5)C4)C3)C2)N1 [Example 263, 2-[6-[[5-(trifluoromethylsulfonyl)-2-pyridyl]methyl]-2-azaspiro[3.3]heptane-2-carbonyl]-2,5-diazaspiro[3.5]nonan-6-one]	183
O=C1COCC2(CN(C(=O)N3CC4(CC(Cc5ccc(S(=O)(=O)C(F)(F)F)cn5)C4)C3)C2)N1 [Example 264, 2-[6-[[5-(trifluoromethylsulfonyl)-2-pyridyl]methyl]-2-azaspiro[3.3]heptane-2-carbonyl]-8-oxa-2,5-diazaspiro[3.5]nonan-6-one]	5.51
O=C1CCCC2(CN(C(=O)N3CC4(CCN(Cc5cccc(S(=O)(=O)C(F)(F)F)c5)C4)C3)C2)N1 [Example 266, 2-[7-[[3-(trifluoromethylsulfonyl)phenyl]methyl]-2,7-diazaspiro[3.4]octane-2-carbonyl]-2,5-diazaspiro[3.5]nonan-6-one]	1380
O=C1CCCC2(CN(C(=O)N3CC4(CN(Cc5ccc(S(=O)(=O)C(F)(F)F)cc5F)C4)C3)C2)N1 [Example 267, 2-[6-[[2-fluoro-4-(trifluoromethylsulfonyl)phenyl]methyl]-2,6-diazaspiro[3.3]heptane-2-carbonyl]-2,5-diazaspiro[3.5]nonan-6-one]	1240
CS(=O)(=O)c1cc(CC2CC3(C2)CN(C(=O)N2CC4(CCCC(=O)N4)C2)C3)cc(C(F)(F)F)c1 [Example 268, 2-[6-[[3-methylsulfonyl-5-(trifluoromethyl)phenyl]methyl]-2-azaspiro[3.3]heptane-2-carbonyl]-2,5-diazaspiro[3.5]nonan-6-one]	301
N#Cc1cc(CC2CC3(C2)CN(C(=O)N2CC4(CCCC(=O)N4)C2)C3)ccc1C(F)(F)F [Example 271, 5-[[2-(6-oxo-2,5-diazaspiro[3.5]nonane-2-carbonyl)-2-azaspiro[3.3]heptan-6-yl]methyl]-2-(trifluoromethyl)benzoni-trile]	31.6
N#Cc1ccc(CC2CC3(C2)CN(C(=O)N2CC4(CCCC(=O)N4)C2)C3)c(F)c1 [Example 273, 3-fluoro-4-[[2-(6-oxo-2,5-diazaspiro[3.5]nonane-2-carbonyl)-2-azaspiro[3.3]heptan-6-yl]methyl]benzonitrile]	68.2
Cn1nc(CC2CC3(C2)CN(C(=O)N2CC4(CCCC(=O)N4)C2)C3)cc1C(F)(F)F [Example 275, 2-[6-[[1-methyl-5-(trifluoromethyl)pyrazol-3-yl]methyl]-2-azaspiro[3.3]heptane-2-carbonyl]-2,5-diazaspiro[3.5]nonan-6-one]	104
Cn1ncc(CC2CC3(C2)CN(C(=O)N2CC4(CCCC(=O)N4)C2)C3)c1C(F)(F)F [Example 276]	92.7
Cn1ncc(C(F)(F)F)c1CC1CC2(C1)CN(C(=O)N1CC3(CCCC(=O)N3)C1)C2 [Example 277, 2-[6-[[2-methyl-4-(trifluoromethyl)pyrazol-3-yl]methyl]-2-azaspiro[3.3]heptane-2-carbonyl]-2,5-diazaspiro[3.5]nonan-6-one]	195
O=C1CCCC2(CN(C(=O)N3CC4(CC(Cc5cc(C(F)(F)F)n[nH]5)C4)C3)C2)N1 [Example 278, 2-[6-[[3-(trifluoromethyl)-1H-pyrazol-5-y1]methyl]-2-azaspiro[3.3]heptane-2-carbonyl]-2,5-diazaspiro[3.5]nonan-6-one]	479
O=C1CCCC2(CN(C(=O)N3CC4(CC(Cc5cc(C(F)F)n[nH]5)C4)C3)C2)N1 [Example 279, 2-[6-[[3-(difluoromethyl)-1H-pyrazol-5-yl]methyl]-2-azaspiro[3.3]heptane-2-carbonyl]-2,5-diazaspiro[3.5]nonan-6-one]	1030
N=[S@](=O)(c1ccc(CC2CC3(C2)CN(C(=O)N2CC4(CCC(=O)N4)C2)C3)cc1)C(F)(F)F [Example 283, 2-[6-[[4-(trifluoromethylsulfoni-midoyl)phenyl]methyl]-2-azaspiro[3.3]heptane-2-carbonyl]-2,5-diazaspiro[3.4]octan-6-one]	0.62

The remaining molecules from weak to strong by IC50, led by results:

IC50 [nM]	SMILES
795	N#Cc1cc(CC2CC3(C2)CN(C(=O)N2CC4(CCCC(=O)N4)C2)C3)cnc1C(F)(F)F [Example 272, 5-[[2-(6-oxo-2,5-diazaspiro[3.5]nonane-2-carbonyl)-2-azaspiro[3.3]heptan-6-yl]methyl]-2-(trifluoromethyl)pyridine-3-carbonitrile]
540	O=C1CCCC2(CN(C(=O)N3CC4(CC(Cn5cc(C(F)(F)F)cn5)C4)C3)C2)N1 [Example 274, 2-[6-[[4-(trifluoromethyl)pyrazol-1-yl]methyl]-2-azaspiro[3.3]heptane-2-carbonyl]-2,5-diazaspiro[3.5]nonan-6-one]
473	O=C1CCCC2(CN(C(=O)N3CC4(CC(Cc5ccc(S(=O)(=O)C6CC6)cc5)C4)C3)C2)N1 [Example 269, 2-[6-[(4-cyclopropylsulfonylphe-nyl)methyl]-2-azaspiro[3.3]heptane-2-carbonyl]-2,5-diazaspiro[3.5]nonan-6-one]
195	O=C1CCC2(CN(C(=O)N3CC4(CC(S(=O)(=O)c5cccc(OC(F)(F)F)c5)C4)C3)C2)N1 [Example 280, 2-[6-[3-(trifluoromethoxy)phenyl]sulfonyl-2-azaspiro[3.3]heptane-2-carbonyl]2,5-diazaspiro[3.4]octan-6-one]
72.4	N#Cc1ccc(CC2CC3(C2)CN(C(=O)N2CC4(CCCC(=O)N4)C2)C3)cc1C(F)(F)F [Example 270]
37.2	O=C1CCC2(CN(C(=O)N3CC4(CCC(S(=O)(=O)c5cccc(C(F)(F)F)c5)CC4)C3)C2)N1 [Example 282, 2-[7-[3-(trifluoromethyl)phenyl]sulfonyl-2-azaspiro[3.5]nonane-2-carbonyl]-2,5-diazaspiro[3.4]octan-6-one]
6.44	O=C1CCC2(CN(C(=O)N3CC4(CCC(S(=O)(=O)c5ccc(C(F)(F)F)cc5)CC4)C3)C2)N1 [Example 281, 2-[7-[4-(trifluoromethyl)phenyl]sulfonyl-2-azaspiro[3.5]nonane-2-carbonyl]-2,5-diazaspiro[3.4]octan-6-one]
0.48	N=S(=O)(c1ccc(CC2CC3(C2)CN(C(=O)N2CC4(CCC(=O)N4)C2)C3)c(F)c1)C(F)(F)F (stereo not drawn) [Example 265, 2-[6-[[2-fluoro-4-(trifluoromethylsulfoni-midoyl)phenyl]methyl]-2-azaspiro[3.3]heptane-2-carbonyl]-2,5-diazaspiro[3.5]octan-6-one]
